The record followed here is publication PMC4660270 (Structure (London, England : 1993), 2015).

Molecules are shown by their SMILES.

The assay addresses TEAD4 (Homo sapiens, UniProt Q15561). Nature of the assay: ITC. In kind it is binding.

TEAD4, sequence (Q15561 217-434): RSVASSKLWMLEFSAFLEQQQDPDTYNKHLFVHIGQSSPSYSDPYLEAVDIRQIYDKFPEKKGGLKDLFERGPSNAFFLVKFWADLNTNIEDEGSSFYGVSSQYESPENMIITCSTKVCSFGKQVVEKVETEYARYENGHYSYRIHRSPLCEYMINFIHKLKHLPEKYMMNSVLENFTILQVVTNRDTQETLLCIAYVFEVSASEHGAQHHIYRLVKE

By Kd is commonly meant the free concentration of one partner at which half of the binding sites on the other are occupied at equilibrium, for simple one-to-one binding. Low values mean tighter binding, high ones weaker binding. Regarding `O=C(O)c1ccccc1Nc1cccc(C(F)(F)F)c1` [FA, flufenamic acid], the Kd was around 73 µM.
